In data set [1] the test system is engineered RPE layer (blood vessel-RPE construct). The data set is described as follows: Calcium imaging (Fluo-4-AM) after ATP addition. Format: cell-based. The following applies: 100 μM ATP added to medium; followed by slow decrease to baseline. Here is the method:
Calcium imaging: Fluo-4-AM was prepared by adding 45 μL DMSO and 45 μL Pluronic-DMSO to a 50 μg vial of Fluo-4-AM.Fluo-4-AM was diluted with HBSS in a ratio of 1:50 and the cells were incubated for 1 hour in 37° C. The cells were washed for 30 minutes in HBSS in 37° C. The sample was placed in an inverted microscope on a heating plate adjusted to 37° C. Fluo-4-AM emission is at 506 nm and excitation is at 494 nm. Images were acquired at a rate of 3.15 Hz. 10 seconds After starting the recording 100 μM ATP were added to the medium. The data was analyzed using ImageJ. TEM: TEM Samples were fixated in 2.5% Glutaraldehyde in PBS over night at 4° C. After several washes in PBS, the samples were post fixed in 1% OsO4 in PBS for 2 h at 4° C. Dehydration was carried out in graded ethanol followed by embedding in Glycid ether. Thin sections were mounted on Formvar/Carbon coated grids, stained with uranyl acetate and lead citrate and examined in Jeol 1400-Plus transmission electron microscope (Jeol, Japan). Images were captured using SIS Megaview III and iTEM the Tem imaging platform (Olympus).SEM: Samples for SEM were fixed with 2.5% glutaraldehyde (24 h, at […]), followed by a graded incubation series in ethanol-water solutions (50-100% (v/v)). […]

Data set [2] can be described thus: Compressive (bulk) modulus of hydrogel. The following applies: compression at 100 μm s^−1; n=3. Format: physicochemical. As to the method: The compressive modulus measurements were performed using a Discovery HR-3 Hybrid Rheometer (TA Instruments, DE) with a 20 mm diameter parallel plate geometry and a Peltier plate to maintain the sample temperature. Bulk modulus tests were performed by compressing the samples at a fixed rate of 100 μm s^−1.
Alongside the rheological testing, the bulk mechanical properties of the hydrogel were also assessed. Samples were compressed, and the linear elastic modulus was calculated. Data are presented as mean±SD, n=3.

Data set [3] can be described thus: High-resolution imaging of hydrogel fiber morphology and pore size. Format: physicochemical. As to the method: Data in FIG. 7I is presented as mean±SD, n=3, and each image had at least 180 pores whose area was determined using ImageJ.
Data set [4] can be described thus: Rheological shear thinning measurements of native and cross-linked ECM hydrogel. The data set is classed as physicochemical. The following applies: 37° C. As to the method:
Rheological Properties: Rheological measurements were taken using Discovery HR-3 hybrid Rheometer (TA Instruments, DE) with 20 mm diameter parallel plate geometry with a Peltier plate to maintain the sample temperature. The samples were loaded at a temperature of 4° C., which was then raised to 37° C. to induce gelation; during which the oscillatory moduli of samples were monitored at a fixed frequency of 1 Hz and a strain of 1%.
The mechanical properties of an exemplary native ECM-based hydrogel (derived from omentum) and of cross-linked hydrogels were assessed by rheological measurements. Shear thinning measurements were conducted at 37° C. Data are presented as mean±SD, n=3. P-values were calculated using a Comparison of Fits test with an Extra Sum of Squares F-test.

On to `Nc1ncnc2c1ncn2[C@@H]1O[C@H](COP(=O)(O)OP(=O)(O)OP(=O)(O)O)[C@@H](O)[C@H]1O` [ATP, adenosine triphosphate], for which the intracellular calcium levels entry in data set [1] is “immediately increased intracellular calcium levels in a significant manner”.

Regarding Oxidized sucrose [SOx], the “hydrogel bulk (linear elastic) modulus with and without exposure to SOx” value in data set [2] is recorded as “significant reinforcement”. In addition, in data set [3] (before vs after exposure to SOx), the “internal fiber morphology of ECM hydrogel after reinforcement” value is listed as “without altering the internal morphology”. Besides, the “pore size (holes in the mesh) before and after crosslinking” value in data set [3] (n=3, at least 180 pores per image) is given as “no difference was observed”. Besides, the “change in gel viscosity” value in data set [4] (increasing SOx concentration to 0.07%) is reported as “smaller increase”; in data set [4] (sample cross-linked with 0.03% SOx vs control gel), “large increase”.

Values taken from US20250367348A1, “3D PRINTING OF 3-LAYERED RETINA AND CHOROID TISSUE” (Ramot at Tel-Aviv University Ltd., priority 2023, published 2025).
